Results as given in patent US11814375B2, “Heterocyclic compounds” (Hoffmann-La Roche Inc., priority 2019, dated 2023).

molecular target: T1, MAGL (Homo sapiens, UniProt Q99685); assay: 2-AG assay: MAGL inhibitory activity by hydrolysis of 2-arachidonoylglycerol to arachidonic acid, followed by mass spectrometry; assay type: biochemical; conditions: 8 μM 2-arachidonoylglycerol, 15 min preincubation and 30 min reaction at RT, arachidonic acid/d8-arachidonic acid ratio by MS
T1 sequence (Q99685 1-303): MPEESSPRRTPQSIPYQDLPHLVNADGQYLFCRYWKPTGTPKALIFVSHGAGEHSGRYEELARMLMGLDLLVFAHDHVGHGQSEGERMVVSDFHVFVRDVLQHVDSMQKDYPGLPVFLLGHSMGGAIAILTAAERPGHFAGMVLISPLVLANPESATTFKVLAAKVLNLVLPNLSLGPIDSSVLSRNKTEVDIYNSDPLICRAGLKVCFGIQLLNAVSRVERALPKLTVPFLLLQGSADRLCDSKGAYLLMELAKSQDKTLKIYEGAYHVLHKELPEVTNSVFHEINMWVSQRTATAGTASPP
Description: Compounds of formula (I) were profiled for MAGL inhibitory activity by determining the enzymatic activity by following the hydrolysis of the natural substrate 2-arachidonoylglycerol (2-AG) resulting in arachidonic acid, which can be followed by mass spectrometry. This assay is hereinafter abbreviated “2-AG assay”.
The 2-AG assay was carried out in 384 well assay plates (PP, Greiner Cat #784201) in a total volume of 20 μL. Compound dilutions were made in 100% DMSO (VWR Chemicals 23500.297) in a polypropylene plate in 3-fold dilution steps to give a final concentration range in the assay from 12.5 μM to […]. 0.25 μL compound dilutions (100% DMSO) were added to 9 μL MAGL in assay buffer (50 mM TRIS (GIBCO, 15567-027), 1 mM EDTA (Fluka, 03690-100 mL), 0.01% (v/v) Tween. After shaking, the plate was incubated for 15 min at RT. To start the reaction, 10 μL 2-arachidonoylglycerol in assay buffer was added. The final concentrations in the assay was […] and 8 μM 2-arachidonoylglyerol. After shaking and 30 min incubation at RT, the reaction was quenched by the addition of 40 μL of ACN containing 4 μM of d8-arachidonic acid. The amount of arachidonic acid was traced by an online SPE system (Agilent Rapidfire) coupled to a triple quadrupole mass spectrometer (Agilent 6460). A C18 SPE cartridge (G9205A) was used in an ACN/water liquid setup. The mass spectrometer was operated in negative electrospray mode following the mass transitions 303.1→259.1 for arachidonic acid and 311.1→267.0 for d8-arachidonic acid. The activity of the compounds was calculated based on the ratio of intensities [arachidonic acid/d8-arachidonic acid].

| SMILES | IC50 [µM] |
| --- | --- |
| Cc1cc(Oc2ccc(C3CN(C(=O)N4CC[C@@H]5OCC(=O)N[C@@H]5C4)C3)cc2)c(C)nn1 [Example 51, (4aR,8aS)-6-[3-[4-(3,6-Dimethylpyridazin-4-yl)oxyphenyl]azetidine-1-carbonyl]-4,4a,5,7,8,8a-hexahydropyrido[4,3-b][1,4]oxazin-3-one] | 0.124 |
| O=C1CO[C@H]2CCN(C(=O)N3CC(c4ccc(Oc5cccc(Cl)c5)nc4)C3)C[C@H]2N1 [Example 53, (4aR,8aS)-6-(3-(6-(3-Chlorophenoxy)pyridin-3-yl)azetidine-1-carbonyl)hexahydro-2H-pyrido[4,3-b][1,4]oxazin-3(4H)-one] | 0.0129 |
| O=C1CO[C@H]2CCN(C(=O)N3CCC(c4ccc(Oc5ccc(F)cc5)cc4)CC3)C[C@H]2N1 [Example 54, (4aR,8aS)-6-[4-[4-(4-Fluorophenoxy)phenyl]piperidine-1-carbonyl]-4,4a,5,7,8,8a-hexahydropyrido[4,3-b][1,4]oxazin-3-one] | 0.0104 |
| O=C1CO[C@H]2CCN(C(=O)N3CC(O)(c4ccc(Oc5ccccc5)cn4)C3)C[C@H]2N1 [Example 56, (4aR,8aS)-6-[3-Hydroxy-3-(5-phenoxy-2-pyridyl)azetidine-1-carbonyl]-4,4a,5,7,8,8a-hexahydropyrido[4,3-b][1,4]oxazin-3-one] | 0.0155 |
| O=C1CO[C@H]2CCN(C(=O)N3CCC(c4ccc(Oc5ccccc5)cc4)CC3)C[C@H]2N1 [Example 57, (4aR,8aS)-6-[4-(4-Phenoxyphenyl)piperidine-1-carbonyl]-4,4a,5,7,8,8a-hexahydropyrido[4,3-b][1,4]oxazin-3-one] | 0.0178 |
| O=C1CO[C@H]2CCN(C(=O)N3CCN(c4ccc(Oc5ccccc5)cc4)CC3)C[C@H]2N1 [Example 58, (4aR,8aS)-6-[4-(4-Phenoxyphenyl)piperazine-1-carbonyl]-4,4a,5,7,8,8a-hexahydropyrido[4,3-b][1,4]oxazin-3-one] | 1.1 |

Now from value to compound:

| IC50 [µM] | SMILES |
| --- | --- |
| 0.0024 | O=C1CO[C@H]2CCN(C(=O)N3CC(c4ccc(Oc5ccc(OC(F)(F)F)cc5)nc4)C3)C[C@H]2N1 [Example 49, (4aR,8aS)-6-(3-(6-(4-(Trifluoromethoxy)phenoxy)pyridin-3-yl)azetidine-1-carbonyl)hexahydro-2H-pyrido[4,3-b][1,4]oxazin-3(4H)-one] |
| 0.0043 | O=C1CO[C@H]2CCN(C(=O)N3CC(c4ccc(Oc5ccc(Cl)cc5)nc4)C3)C[C@H]2N1 [Example 50, (4aR,8aS)-6-(3-(6-(4-Chlorophenoxy)pyridin-3-yl)azetidine-1-carbonyl)hexahydro-2H-pyrido[4,3-b][1,4]oxazin-3(4H)-one] |
| 0.0013 | O=C1CO[C@H]2CCN(C(=O)N3CC(c4ccc(Oc5ccccc5Cl)nc4)C3)C[C@H]2N1 [Example 52, (4aR,8aS)-6-(3-(6-(2-Chlorophenoxy)pyridin-3-yl)azetidine-1-carbonyl)hexahydro-2H-pyrido[4,3-b][1,4]oxazin-3(4H)-one] |
| 0.0103 | O=C1CO[C@H]2CCN(C(=O)N3CC(O)(c4ccc(Oc5ccccc5)cc4)C3)C[C@H]2N1 [Example 55, (4aR,8aS)-6-[3-Hydroxy-3-(4-phenoxyphenyl)azetidine-1-carbonyl]-4,4a,5,7,8,8a-hexahydropyrido[4,3-b][1,4]oxazin-3-one] |
